Common to all, as to assay: inhibition of tumour cell growth, NCI panel, 48 h
For assay [1], the system named is A549 NSCLC.
The subject of assay [2] is OVCAR-5 ovarian.
The subject of assay [3] is LOX IMVI melanoma.
Assay [4] concerns NCI/ADR-RES ovarian.
In assay [5] the test system is SK-OV-3 ovarian.
Assay [6] deals with SK-MEL-2 melanoma.
Assay [7] relates to HOP-62 NSCLC.
Assay [8] relates to SF-268 CNS.
The test system of assay [9] is SR leukemia.
The subject of assay [10] is MCF7 breast.

“And” between values parts separate entries of the source, which are not always exact repeats. Equal entries are not always repeated.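 Method: 48-hour compound exposure of cells in 96-well plates, five concentrations, linear interpolation of endpoints. Here, GI50 denotes the concentration required for 50% inhibition of growth. TGI: concentration producing complete growth inhibition.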

Regarding `COc1ccc(/C(=C/c2cc(OC)c(OC)c(OC)c2)[N+](=O)[O-])cc1`, the GI50 is 3 µM in assay [1]; 2.01 µM in assay [2]; 1.62 µM in assay [3]; 2.47 µM in assay [4]; 4.96 µM in [5]; 2.04 µM in assay [6]. Also, the GI50 is 2.64 µM in assay [7] and 1.79 µM in [8]. Besides, the TGI in [1] stood at 10.3 µM; in assay [2] it was 4.09 µM; in [3] it was 3.07 µM; in [4], 7.55 µM; in assay [5], 17 µM; in [6], 4.92 µM. Besides, the TGI stood at 5.93 µM in assay [7] and 3.64 µM in assay [8].
In the case of `COc1cc2cc(Oc3ccc(NC(=O)Nc4cccc(C(F)(F)F)c4)cc3)c(C)nc2cc1OCCN1CCCCC1`, the GI50 was 1.87 µM in [2], 0.479 µM in assay [9], 2.06 µM in assay [5] and 1.63 µM in assay [10]. Also, the TGI in assay [2] was 3.29 µM; in assay [9], 2.52 µM; in [5] it was 3.8 µM; in [10], 3.33 µM.
In the case of `OB([O][Hg][c]1ccccc1)[O][Hg][c]1ccccc1`, the GI50 in assay [1] was 1.83 µM; in [2], 1.88 µM; in [3], 0.173 µM; in assay [4], 1.69 µM; in assay [5] it was 1.6 µM; in assay [6], 0.168 µM. Moreover, the GI50 in assay [7] is 1.04 µM; in [8], 1.06 µM. For the same compound, the TGI in [1] was found to be 4.64 µM; in assay [2], 3.33 µM; in [3], 0.366 µM; in assay [4], 4.45 µM; in assay [5] it was 2.97 µM; in [6] it was 0.509 µM. Also, the TGI in assay [7] was determined as 3.39 µM; in [8] it was 2.5 µM.
Consider `CCOC(=O)CCC(NC(=O)c1ccc(N=Cc2nc3cc(C(F)(F)F)ccc3nc2-c2ccccc2)cc1)C(=O)OCC` (stereo not given), for which the GI50 is > 100 µM in assay [1]; > 100 µM in assay [2]; > 100 µM in assay [3]; > 100 µM in assay [9]; 14.1 µM in [5]; 37.7 µM in [6]. Moreover, the GI50 in assay [7] is 16.3 µM; in assay [8], 22.9 µM. In addition, the TGI in [1] was 50 µM and > 100 µM; in assay [2], > 100 µM; in assay [3], 50 µM and > 100 µM; in [9] it was > 100 µM; in assay [5] it was 23.2 µM and 38.2 µM; in assay [6], 34.7 µM and > 100 µM. Besides, the TGI in [7] was 50 µM and 40.6 µM; in assay [8] it was 31.8 µM and > 100 µM.
With `COc1c(OC(C)=O)ccc(/C=C2\N=C(C)OC2=O)c1[N+](=O)[O-]`, the TGI in assay [1], in assay [2], in [3], in assay [9], in assay [5] and in [6] was > 100 µM in each case. Besides, the TGI in [7] and in assay [8] was > 100 µM throughout.
`C/C(=N\N(C)C)c1sc(-n2nc(-c3ccccc3)cc2-c2ccccc2)nc1C`: the TGI in assay [1] is > 100 µM; in assay [2], 82.4 µM; in assay [3] it was 35.3 µM; in assay [9] it was > 100 µM; in [5], > 100 µM; in [6] it was > 100 µM. The TGI in assay [7] and in assay [8] was > 100 µM each time.
As to `CC(=O)Oc1c(C)n(CCCl)ccc1=O`, the TGI in assay [1], in assay [2], in [3], in assay [9], in [5] and in assay [6] was > 100 µM each time. In addition, the TGI in assay [7] and in [8] was > 100 µM in each case.
As for `NNC(=O)/C(=C/c1cccc([N+](=O)[O-])c1)NC(=O)c1ccccc1`, the TGI in assay [1], in assay [2], in assay [3], in assay [9], in assay [5] and in assay [6] was > 100 µM each time. Also, the TGI in assay [7] and in [8] was > 100 µM throughout.
On to `O=S(=O)(c1ccc(NC(=S)N/N=C/c2ccccc2O)cc1)N1CCCCC1`, for which the TGI was > 31.7 µM in [1]; 18.3 µM in assay [2]; 0.109 µM in assay [3]; 0.586 µM in assay [4]; 3.58 µM in assay [9]; 37.9 µM in assay [5]. Moreover, the figures for the TGI in [6], in assay [7] and in assay [8] were > 100 µM, 4.45 µM and 6.9 µM, respectively.
Regarding `Cn1nc(-c2ccccc2NC(=O)C(F)(F)F)c(=O)n(C)c1=S`, the TGI in assay [1] is > 100 µM; in assay [2] it was > 100 µM; in assay [3], > 100 µM; in [9], 53.7 µM; in [5], > 100 µM; in [6], 60.7 µM. The figures for the TGI in assay [7] and in [8] were > 100 µM and 56 µM, respectively.

The values above are taken from PubChem BioAssay (NCI).
